Data from US20200009088A1, “COMPOSITIONS AND METHODS FOR TREATING ANDROGEN-INDEPENDENT CANCER” (The Regents of the University of California, priority 2017, published 2020).
“Also recorded” adds a separate entry of the source.

Key:
AR-V12 = target: T1, AR-V12 (Homo sapiens, UniProt P10275); assay: PSA-luc assay in C4-2B cells, AR-V12; type: cell-based; conditions: FBS, 1 μM overnight, FIG. 14F
T1 construct: expressed in transfected cells; host or cells: C4-2B
Description: (§1) C4-2B cells were cotransfected with pcDNA, with or without AR-V1, AR-V3, AR-V7, AR-V9 or AR-V12, and with PSA-E/P-luciferase plasmids in FBS condition.

PSA = PSA protein expression by ELISA in C4-2 cells overexpressing AR-V7; type: cell-based; conditions: C4-2-V7 cells, FIG. 3; for PSA expression: compound alone, ELISA; for enzalutamide-mediated PSA inhibition: in presence of enzalutamide (MDV)
Description: PSA protein expression was determined by ELISA assay. * denotes p<0.05.

AR-V7 [1] = target: T2, AR-V7 (Homo sapiens, UniProt P10275); assay: Western blot of AR-V7 in CWR22Rv1 xenograft tumor lysates; type: in vivo; set-up: endogenous in cells; host or cells: CWR22Rv1 prostate cancer cells (also grown as xenograft tumours); conditions: CWR22Rv1 xenograft lysates vs controls, FIG. 13D
T2 sequence (P10275 1-644 isoform P10275-3): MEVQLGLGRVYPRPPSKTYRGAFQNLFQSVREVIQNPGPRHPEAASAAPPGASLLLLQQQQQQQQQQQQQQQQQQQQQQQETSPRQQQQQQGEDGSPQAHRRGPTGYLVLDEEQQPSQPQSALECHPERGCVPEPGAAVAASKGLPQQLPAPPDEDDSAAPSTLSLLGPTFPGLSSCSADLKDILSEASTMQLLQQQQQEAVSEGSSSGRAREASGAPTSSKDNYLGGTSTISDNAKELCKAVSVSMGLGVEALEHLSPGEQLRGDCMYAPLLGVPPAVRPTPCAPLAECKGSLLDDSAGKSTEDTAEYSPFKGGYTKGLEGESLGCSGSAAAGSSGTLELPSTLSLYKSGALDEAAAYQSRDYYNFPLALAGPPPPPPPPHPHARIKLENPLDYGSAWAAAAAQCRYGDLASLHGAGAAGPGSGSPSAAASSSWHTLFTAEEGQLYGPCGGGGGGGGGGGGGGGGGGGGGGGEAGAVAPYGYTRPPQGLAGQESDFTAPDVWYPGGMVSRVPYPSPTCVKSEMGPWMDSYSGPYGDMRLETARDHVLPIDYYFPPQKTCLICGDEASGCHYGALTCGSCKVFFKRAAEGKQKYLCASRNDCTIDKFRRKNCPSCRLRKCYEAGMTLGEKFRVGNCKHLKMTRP
Description: (§2) Tumor volume, tumor weight, and body weight were measured. Protein lysates were isolated from the tumors and analyzed for AR and AR-V7 expression by Western blot. […] “AR-Variants” represents a combination of all forms of AR. * denotes p<0.05.
(§3) Protein lysates were isolated and analyzed for AR and AR-V7 expression by Western blot.

[2] = tested on: CWR22Rv1 tumor xenografts; assay: CWR22Rv1 tumor xenograft growth in vivo
Description: as §2, §3

in vivo = conditions: male, Sprague-Dawley, rat, in vivo, po, 200 mg/kg
Description: Blood samples were obtained at the time points indicated in FIG. 18 (0 minutes, 15 minutes, 30 minutes, 1 hour, 1.5 hours, 2 hours, 4 hours, 6 hours, 8 hours, and 24 hours) and the plasma was isolated for LC-MS analysis.

AR [3] = assay: Western blot of AR expression in CWR22Rv1 cell lysates; type: cell-based; conditions: CWR22Rv1 cells, FIG. 2A
Description: “AR-Variants” represents a combination of all forms of AR.
The effects of the synthetic small molecule modulators on AR and AR variant expression were determined. CWR22Ry1 prostate cancer cells were treated with different compounds. Protein lysates were analyzed for AR and AR variant expression.

K581R AR mutant = target: T3, K581R AR mutant (Homo sapiens, UniProt P10275, K581R); assay: AR transactivation luciferase assay in HEK 293 cells, K581R; type: cell-based; conditions: luciferase reporter, FIG. 5D
T3 construct: expressed in transfected cells; host or cells: HEK 293
Description: (§4) HEK 293 cells were transiently transfected with expression vectors encoding the corresponding mutant AR and an androgen-responsive luciferase reporter gene construct. […] Luciferase activity was then determined.

AR-V3 = assay: PSA-luc assay in C4-2B cells, AR-V3; type: cell-based; conditions: FBS, 1 μM overnight, FIG. 14C
Description: as §1

AR-V7 [4] = target: T2, AR-V7; assay: PSA-luc reporter in LNCaP cells co-transfected with AR-V7; conditions: LNCaP cells co-transfected with AR-V7, FIG. 4
Description: The luciferase activity was then determined. * denotes p<0.05.
In addition, the effects on AR transcriptional activity were determined using PSA-luc as a reporter. LNCaP cells were cotransfected with PSA-luc together with or without AR-V7, and treated with the compounds.

AR [5] = assay: Western blot of AR in CWR22Rv1 xenograft tumor lysates; type: in vivo; conditions: CWR22Rv1 xenograft lysates vs controls, FIG. 13D
Description: as §2, §3

CWR22Rv1 cells = assay: Cell growth assay (cell numbers), CWR22Rv1; type: cell-based; conditions: for cell proliferation, combination with enzalutamide (MDV): CWR22Rv1, 0.5 μM + enzalutamide, 48 hours, FIG. 7A; for cell growth: CWR22Rv1, 48 hours, increasing doses of niclosamide/analogs, FIG. 6
V716M AR mutant = target: T4, V716M AR mutant (Homo sapiens, UniProt P10275, V716M); assay: AR transactivation luciferase assay in HEK 293 cells, V716M; type: cell-based; conditions: luciferase reporter, FIG. 5E
T4 construct: expressed in transfected cells; host or cells: HEK 293
Description: as §4

C4-2BMDVR cells = assay: ELISA cell death (apoptosis) assay; type: cell-based; conditions: FIG. 8; for cell apoptosis: compound alone, analogs compared with niclosamide
Description: To further examine the anti-cancer effects of these compounds, an ELISA cell death assay was performed.

LuCaP 35CR PDX xenograft = assay: LuCaP 35CR PDX tumor model, oral administration; type: in vivo, mice
Description: For the data shown in FIG. 19A, a LuCaP 35CR PDX model was established in male castrated SCID mice. […] Tumor and body weights are shown in FIGS. 19B and 19C, respectively.

C4-2-V7 cells = assay: Cell growth assay (cell numbers), C4-2-V7; type: cell-based; conditions: C4-2-V7, 0.5 μM + enzalutamide, 48 hours, FIG. 7D

SMILES | AR-V12-mediated PSA-luc activity (AR-V12) | PSA expression (PSA) | enzalutamide-mediated PSA inhibition (PSA) | AUC(0-inf) (in vivo) [µM·h] | AUC_% Extrap_obs (in vivo) | HL_Lambda_z (in vivo) [min] | AR expression (AR [3]) | K581R mutant AR transactivation (K581R AR mutant) | AR-V3-mediated PSA-luc activity (AR-V3) | AR-V7 mediated PSA-luc activity (AR-V7 [4]) | cell proliferation, combination with enzalutamide (MDV) (CWR22Rv1 cells) | cell growth (CWR22Rv1 cells) | V716M mutant AR transactivation (V716M AR mutant) | cell apoptosis (C4-2BMDVR cells) | apoptotic cell death, combination with enzalutamide (MDV) (C4-2BMDVR cells) | cell proliferation, combination with enzalutamide (MDV) (C4-2-V7 cells) | further results
O=C(Nc1ccc(C(F)(F)F)cc1Cl)c1cc(Cl)ccc1O [Compound 7] | inhibited | inhibited | further enhanced | 4.28 | 15.35 +/− 3.08% | 580.54 ± 86.4 | inhibited | significantly blocked | inhibited | inhibited | further inhibited | able to inhibit cell growth in a dose-dependent manner | significantly blocked | further enhanced | further increased | further inhibited | AR-V7 protein expression in tumors (AR-V7 [1]): significantly inhibited; body weight ([2]; FIG. 13B): without inhibition of body weight; tumor growth ([2]; FIGS. 13A-13C): significantly inhibited; AR protein expression in tumors (AR [5]): significantly inhibited; serum PSA levels compared with niclosamide (LuCaP 35CR PDX xenograft; both p.o. 150 mg/kg): to a greater extent than niclosamide; anti-tumor activity (tumor volume) compared with niclosamide (LuCaP 35CR PDX xenograft; both p.o. 150 mg/kg, 150 mg/kg): to a greater extent than niclosamide; also recorded: better anti-tumor activity than niclosamide; tumor growth (LuCaP 35CR PDX xenograft; castrated SCID mice, p.o. 150 mg/kg, 4 weeks, FIG. 19, 150 mg/kg): significantly inhibited; also recorded: suppressed; body weight (LuCaP 35CR PDX xenograft; castrated SCID mice, p.o. 150 mg/kg, 4 weeks, FIG. 19C): without inhibition of body weight; PSA protein expression in mouse sera (LuCaP 35CR PDX xenograft; p.o. 150 mg/kg, 4 weeks, FIG. 19D): inhibited
C=CC(=O)Oc1ccc(Cl)cc1C(=O)Nc1ccc([N+](=O)[O-])cc1Cl [Compound 31] | inhibited | inhibited; also recorded: strongest effect | further enhanced | 6.48 | 2.3 +/− 1.85% | 276.51 ± 92.17 | inhibited | significantly blocked | inhibited | inhibited | further inhibited | able to inhibit cell growth in a dose-dependent manner | significantly blocked | further enhanced | further increased | further inhibited | AUC(0-t) (in vivo): 6.37 µM·h; Cmax (in vivo): 2690 nM; Tmax (in vivo): 25 min; Cmax (in vivo; Cmax): 2680 nM
